Measurements from ChEMBL document CHEMBL3885861, “Open TG-GATES”.

Species: Rattus norvegicus
Assay: Open TG-GATES - Regimen: Daily Repeat
Type: toxicity, organism-based, Sprague-Dawley
Parameters: regimen Daily Repeat, gender Male, age 6 weeks
Conditions: in vivo, po, route gavage; for Bas / Eos / Fbg / MCHC / Neu / Plat / RBC / Ret / WBC / Lym / MCH / MCV / Mono: tissue Blood; for KIDNEY_L / KIDNEY_R / KIDNEY_TOTAL: tissue Kidney; for LIVER: tissue Liver
[1] = 0 mg/kg, 72 h, dose level Control, time 3 day
[2] = 0 mg/kg, 72 h, tissue Plasma, dose level Control, time 3 day
[3] = 0 mg/kg, […], dose level Control, time 14 day
[4] = 0 mg/kg, […], dose level Control, time 28 day
[5] = 0 mg/kg, […], tissue Plasma, dose level Control, time 14 day
[6] = 0 mg/kg, […], tissue Plasma, dose level Control, time 28 day
[7] = 1 mg/kg, 72 h, dose level Low, time 3 day
[8] = 1 mg/kg, 72 h, tissue Plasma, dose level Low, time 3 day
[9] = 1 mg/kg, […], dose level Low, time 14 day
[10] = 1 mg/kg, […], dose level Low, time 28 day
[11] = 1 mg/kg, […], tissue Plasma, dose level Low, time 14 day
[12] = 1 mg/kg, […], tissue Plasma, dose level Low, time 28 day

Which results are given for `O=C(O)Cc1ccccc1Nc1c(Cl)cccc1Cl` [DICLOFENAC]?
TERMINAL_BW [1]: 237.4 g; Bas [1]: 0%; Eos [1]: 1%; Fbg [1]: 222.6 mg/dL; MCHC [1]: 34.5%; Neu [1]: 21%; Plat [1]: 120.1 x10_4/uL; RBC [1]: 626.6 x10_4/ul; Ret [1]: 4.9%; WBC [1]: 105.4 x10_2/uL; KIDNEY_L [1]: 1 g; KIDNEY_R [1]: 1 g; KIDNEY_TOTAL [1]: 2 g; ALP [2]: 974.8 IU/L; AST [2]: 65 IU/L; CRE [2]: 0.4 mg/dL; DBIL [2]: 0.1 mg/dL; GLC [2]: 193 mg/dL; IP [2]: 7.8 mg/dL; LDH [2]: 163.8 IU/L; PL [2]: 160.6 mg/dL; TBIL [2]: 0.2 mg/dL; TC [2]: 74 mg/dL; TG [2]: 141 mg/dL; TP [2]: 5.6 g/dL; gamma-GTP [2]: 1.2 IU/L; TERMINAL_BW [3]: 317.2 g; TERMINAL_BW [4]: 396.3 g; Bas [3]: 0%; Eos [3]: 0.8%; Fbg [3]: 221.6 mg/dL; Lym [3]: 80.8%; MCH [3]: 21.5 pg; MCHC [3]: 35.9%; MCV [3]: 59.9 fL; Mono [3]: 2%; Plat [3]: 106.7 x10_4/uL; Ret [3]: 4%; WBC [3]: 92.1 x10_2/uL; Bas [4]: 0%; Fbg [4]: 219.8 mg/dL; Lym [4]: 84.2%; MCH [4]: 20.1 pg; MCHC [4]: 36.1%; MCV [4]: 55.9 fL; Neu [4]: 11.4%; Plat [4]: 102.6 x10_4/uL; RBC [4]: 801.6 x10_4/ul; Ret [4]: 2.3%; WBC [4]: 127.9 x10_2/uL; KIDNEY_L [3]: 1.3 g; KIDNEY_R [3]: 1.3 g; KIDNEY_TOTAL [3]: 2.6 g; KIDNEY_L [4]: 1.4 g; KIDNEY_R [4]: 1.4 g; KIDNEY_TOTAL [4]: 2.8 g; LIVER [4]: 15.7 g; ALP [5]: 720.8 IU/L; ALT [5]: 31.2 IU/L; CRE [5]: 0.4 mg/dL; DBIL [5]: 0.1 mg/dL; GLC [5]: 220.2 mg/dL; IP [5]: 7.2 mg/dL; K [5]: 3.7 meq/L; LDH [5]: 170 IU/L; Na [5]: 140.2 meq/L; PL [5]: 143.8 mg/dL; RALB [5]: 3.4 g/dL; TBIL [5]: 0.2 mg/dL; TC [5]: 64.2 mg/dL; TP [5]: 6 g/dL; gamma-GTP [5]: 1 IU/L; ALP [6]: 600.6 IU/L; AST [6]: 57 IU/L; CRE [6]: 0.5 mg/dL; Ca [6]: 10.3 mg/dL; Cl [6]: 101.8 meq/L; DBIL [6]: 0.1 mg/dL; GLC [6]: 240.8 mg/dL; IP [6]: 6.5 mg/dL; K [6]: 3.5 meq/L; LDH [6]: 146.4 IU/L; Na [6]: 140.4 meq/L; PL [6]: 151.4 mg/dL; RALB [6]: 3.6 g/dL; TBIL [6]: 0.2 mg/dL; TC [6]: 68.8 mg/dL; TG [6]: 145.6 mg/dL; TP [6]: 6.3 g/dL; gamma-GTP [6]: 0.8 IU/L; TERMINAL_BW [7]: 235.7 g; Bas [7]: 0%; Eos [7]: 1%; Fbg [7]: 217.6 mg/dL; Mono [7]: 3.4%; Plat [7]: 125.8 x10_4/uL; RBC [7]: 633.8 x10_4/ul; Ret [7]: 5%; WBC [7]: 89.1 x10_2/uL; KIDNEY_L [7]: 1 g; KIDNEY_R [7]: 1 g; KIDNEY_TOTAL [7]: 2.1 g; LIVER [7]: 11 g; ALP [8]: 1075.6 IU/L; AST [8]: 66 IU/L; CRE [8]: 0.4 mg/dL; DBIL [8]: 0.1 mg/dL; GLC [8]: 190 mg/dL; LDH [8]: 173.4 IU/L; PL [8]: 164.2 mg/dL; TBIL [8]: 0.2 mg/dL; TC [8]: 75.8 mg/dL; TP [8]: 5.7 g/dL; gamma-GTP [8]: 1 IU/L; TERMINAL_BW [9]: 319.9 g; TERMINAL_BW [10]: 385.2 g; Bas [9]: 0%; Eos [9]: 1%; Fbg [9]: 224.4 mg/dL; Lym [9]: 78.4%; MCHC [9]: 35.7%; Plat [9]: 114.5 x10_4/uL; RBC [9]: 699 x10_4/ul; Ret [9]: 3.8%; WBC [9]: 100.3 x10_2/uL; Bas [10]: 0%; Eos [10]: 1.4%; Lym [10]: 80%; MCH [10]: 20.1 pg; MCHC [10]: 36.1%; MCV [10]: 55.6 fL; Neu [10]: 15.4%; Plat [10]: 108.4 x10_4/uL; RBC [10]: 796.2 x10_4/ul; Ret [10]: 1.8%; WBC [10]: 95.4 x10_2/uL; KIDNEY_L [9]: 1.3 g; KIDNEY_R [9]: 1.3 g; KIDNEY_TOTAL [9]: 2.6 g; KIDNEY_L [10]: 1.4 g; KIDNEY_R [10]: 1.4 g; KIDNEY_TOTAL [10]: 2.8 g; LIVER [10]: 14.8 g; ALP [11]: 890.6 IU/L; ALT [11]: 35.2 IU/L; AST [11]: 66.2 IU/L; CRE [11]: 0.4 mg/dL; Ca [11]: 10.6 mg/dL; DBIL [11]: 0.1 mg/dL; GLC [11]: 218.4 mg/dL; IP [11]: 7.8 mg/dL; K [11]: 3.7 meq/L; LDH [11]: 192.8 IU/L; Na [11]: 140.8 meq/L; PL [11]: 173.4 mg/dL; RALB [11]: 3.4 g/dL; TBIL [11]: 0.2 mg/dL; TC [11]: 81.4 mg/dL; TG [11]: 151.6 mg/dL; TP [11]: 5.9 g/dL; gamma-GTP [11]: 0.4 IU/L; ALP [12]: 610.6 IU/L; ALT [12]: 29.4 IU/L; AST [12]: 61.4 IU/L; CRE [12]: 0.4 mg/dL; DBIL [12]: 0.088 mg/dL; GLC [12]: 215.8 mg/dL; IP [12]: 6.7 mg/dL; K [12]: 3.5 meq/L; LDH [12]: 165.4 IU/L; PL [12]: 141.4 mg/dL; RALB [12]: 3.4 g/dL; TBIL [12]: 0.2 mg/dL; TP [12]: 6.2 g/dL; gamma-GTP [12]: 0.2 IU/L
